Results: ChEMBL document CHEMBL3046559, “Sterile oat (Avena sterilis L.) cross-resistance profile to ACCase-inhibiting herbicides in Greece” (2012)

Key:
Format in all cases: functional
Avena sterilis [1] = test: Herbicidal activity against Avena sterilis accession P18 assessed as weed survival at 1 times field recommended herbicide dose
Avena sterilis [2] = test: Herbicidal activity against Avena sterilis accession P16 assessed as weed survival at 1 times field recommended herbicide dose
Avena sterilis [3] = test: Herbicidal activity against Avena sterilis accession P14 assessed as weed survival at 1 times field recommended herbicide dose
Avena sterilis [4] = test: Herbicidal activity against Avena sterilis accession P11 assessed as weed survival at 1 times field recommended herbicide dose
Avena sterilis [5] = test: Herbicidal activity against Avena sterilis accession P07 assessed as weed survival at 1 times field recommended herbicide dose
Avena sterilis [6] = test: Herbicidal activity against Avena sterilis accession P21S assessed as weed survival at 1/32 times field recommended herbicide dose
Avena sterilis [7] = test: Herbicidal activity against Avena sterilis accession P19S assessed as weed survival at 1/32 times field recommended herbicide dose
Avena sterilis [8] = test: Herbicidal activity against Avena sterilis accession P13S assessed as weed survival at 1/32 times field recommended herbicide dose
Avena sterilis [9] = test: Herbicidal activity against Avena sterilis accession P10S assessed as weed survival at 1/32 times field recommended herbicide dose
Avena sterilis [10] = test: Herbicidal activity against Avena sterilis accession P06S assessed as weed survival at 1/32 times field recommended herbicide dose
Avena sterilis [11] = test: Herbicidal activity against Avena sterilis accession P22 assessed as weed survival at 32 times field recommended herbicide dose
Avena sterilis [12] = test: Herbicidal activity against Avena sterilis accession P05 assessed as weed survival at 1 times field recommended herbicide dose
Avena sterilis [13] = test: Herbicidal activity against Avena sterilis accession P02 assessed as weed survival at 1 times field recommended herbicide dose
Avena sterilis [14] = test: Herbicidal activity against Avena sterilis accession P01 assessed as weed survival at 1 times field recommended herbicide dose
Avena sterilis [15] = test: Herbicidal activity against Avena sterilis accession P21S assessed as induction of weed mortality
Avena sterilis [16] = test: Herbicidal activity against Avena sterilis accession P19S assessed as induction of weed mortality
Avena sterilis [17] = test: Herbicidal activity against Avena sterilis accession P10S assessed as induction of weed mortality
Avena sterilis [18] = test: Herbicidal activity against Avena sterilis accession P06S assessed as induction of weed mortality
Avena sterilis [19] = test: Herbicidal activity against Avena sterilis accession P22 assessed as induction of weed mortality
Avena sterilis [20] = test: Herbicidal activity against Avena sterilis accession P16 assessed as induction of weed mortality
Avena sterilis [21] = test: Herbicidal activity against Avena sterilis accession P14 assessed as induction of weed mortality
Avena sterilis [22] = test: Herbicidal activity against Avena sterilis accession P09 assessed as induction of weed mortality
Avena sterilis [23] = test: Herbicidal activity against Avena sterilis accession P08 assessed as induction of weed mortality
Avena sterilis [24] = test: Herbicidal activity against Avena sterilis accession P02 assessed as induction of weed mortality
Avena sterilis [25] = test: Herbicidal activity against Avena sterilis accession P01 assessed as induction of weed mortality
Avena sterilis [26] = test: Herbicidal activity against Avena sterilis accession P17 assessed as weed survival at 8 times field recommended herbicide dose
Avena sterilis [27] = test: Herbicidal activity against Avena sterilis accession P16 assessed as weed survival at 8 times field recommended herbicide dose
Avena sterilis [28] = test: Herbicidal activity against Avena sterilis accession P15 assessed as weed survival at 8 times field recommended herbicide dose
Avena sterilis [29] = test: Herbicidal activity against Avena sterilis accession P14 assessed as weed survival at 8 times field recommended herbicide dose
Avena sterilis [30] = test: Herbicidal activity against Avena sterilis accession P12 assessed as weed survival at 8 times field recommended herbicide dose
Avena sterilis [31] = test: Herbicidal activity against Avena sterilis accession P16 assessed as weed survival at 32 times field recommended herbicide dose
Avena sterilis [32] = test: Herbicidal activity against Avena sterilis accession P12 assessed as weed survival at 32 times field recommended herbicide dose
Avena sterilis [33] = test: Herbicidal activity against Avena sterilis accession P08 assessed as weed survival at 32 times field recommended herbicide dose
Avena sterilis [34] = test: Herbicidal activity against Avena sterilis accession P07 assessed as weed survival at 32 times field recommended herbicide dose
Avena sterilis [35] = test: Herbicidal activity against Avena sterilis accession P01 assessed as weed survival at 32 times field recommended herbicide dose
Avena sterilis [36] = test: Herbicidal activity against Avena sterilis accession P10S assessed as weed survival at 1/16 times field recommended herbicide dose
Avena sterilis [37] = test: Herbicidal activity against Avena sterilis accession P06S assessed as weed survival at 1/16 times field recommended herbicide dose
Avena sterilis [38] = test: Herbicidal activity against Avena sterilis accession P20 assessed as weed survival at 16 times field recommended herbicide dose
Avena sterilis [39] = test: Herbicidal activity against Avena sterilis accession P17 assessed as weed survival at 16 times field recommended herbicide dose
Avena sterilis [40] = test: Herbicidal activity against Avena sterilis accession P14 assessed as weed survival at 16 times field recommended herbicide dose
Avena sterilis [41] = test: Herbicidal activity against Avena sterilis accession P04 assessed as weed survival at 16 times field recommended herbicide dose
Avena sterilis [42] = test: Herbicidal activity against Avena sterilis accession P01 assessed as weed survival at 16 times field recommended herbicide dose
Avena sterilis [43] = test: Herbicidal activity against Avena sterilis accession P22 assessed as weed survival at 8 times field recommended herbicide dose
Avena sterilis [44] = test: Herbicidal activity against Avena sterilis accession P20 assessed as weed survival at 8 times field recommended herbicide dose
Avena sterilis [45] = test: Herbicidal activity against Avena sterilis accession P08 assessed as weed survival at 8 times field recommended herbicide dose
Avena sterilis [46] = test: Herbicidal activity against Avena sterilis accession P03 assessed as weed survival at 8 times field recommended herbicide dose
Avena sterilis [47] = test: Herbicidal activity against Avena sterilis accession P13S assessed as weed survival at 1/4 times field recommended herbicide dose
Avena sterilis [48] = test: Herbicidal activity against Avena sterilis accession P10S assessed as weed survival at 1/4 times field recommended herbicide dose
Avena sterilis [49] = test: Herbicidal activity against Avena sterilis accession P20 assessed as weed survival at 4 times field recommended herbicide dose
Avena sterilis [50] = test: Herbicidal activity against Avena sterilis accession P18 assessed as weed survival at 4 times field recommended herbicide dose
Avena sterilis [51] = test: Herbicidal activity against Avena sterilis accession P16 assessed as weed survival at 4 times field recommended herbicide dose
Avena sterilis [52] = test: Herbicidal activity against Avena sterilis accession P14 assessed as weed survival at 4 times field recommended herbicide dose
Avena sterilis [53] = test: Herbicidal activity against Avena sterilis accession P12 assessed as weed survival at 4 times field recommended herbicide dose
Avena sterilis [54] = test: Herbicidal activity against Avena sterilis accession P09 assessed as weed survival at 4 times field recommended herbicide dose
Avena sterilis [55] = test: Herbicidal activity against Avena sterilis accession P05 assessed as weed survival at 4 times field recommended herbicide dose
Avena sterilis [56] = test: Herbicidal activity against Avena sterilis accession P03 assessed as weed survival at 4 times field recommended herbicide dose
Avena sterilis [57] = test: Herbicidal activity against Avena sterilis accession P01 assessed as weed survival at 4 times field recommended herbicide dose
Avena sterilis [58] = test: Herbicidal activity against Avena sterilis accession P22 assessed as weed survival at 1 times field recommended herbicide dose

Compound `C#CCOC(=O)[C@@H](C)Oc1ccc(Oc2ncc(Cl)cc2F)cc1` [CLODINAFOP PROPARGYL] has a Survival (Avena sterilis [1]) of 80%, a Survival (Avena sterilis [2]) of 93% and a Survival (Avena sterilis [3]) of 97%. For the same compound, the Survival (Avena sterilis [4]) was 100%, the Survival (Avena sterilis [5]) was 13% and the Survival (Avena sterilis [6]) was 97%. It also gave a Survival (Avena sterilis [7]) of 100%, a Survival (Avena sterilis [8]) of 80% and a Survival (Avena sterilis [9]) of 83%. The Survival (Avena sterilis [10]) was 100%, the Survival (Avena sterilis [11]) was 0% and the Survival (Avena sterilis [12]) was 90%. For the same compound, the Survival (Avena sterilis [13]) was 97%, the Survival (Avena sterilis [14]) was 97% and the GR50 (Avena sterilis [15]) was 11 gAi/ha. It also gave a GR50 (Avena sterilis [16]) of 29 gAi/ha, a GR50 (Avena sterilis [17]) of 8 gAi/ha and a GR50 (Avena sterilis [18]) of 9 gAi/ha. For the same compound, the GR50 (Avena sterilis [19]) was 122 gAi/ha, the GR50 (Avena sterilis [20]) was 169 gAi/ha and the GR50 (Avena sterilis [21]) was 1219 gAi/ha. For the same compound, the GR50 (Avena sterilis [22]) was 46 gAi/ha, the GR50 (Avena sterilis [23]) was >1312 gAi/ha and the GR50 (Avena sterilis [24]) was >1312 gAi/ha. It also gave a GR50 (Avena sterilis [25]) of 1053 gAi/ha, a Survival (Avena sterilis [26]) of 40% and a Survival (Avena sterilis [27]) of 20%. For the same compound, the Survival (Avena sterilis [28]) was 100%, the Survival (Avena sterilis [29]) was 80% and the Survival (Avena sterilis [30]) was 100%. The Survival (Avena sterilis [31]) was 0%, the Survival (Avena sterilis [32]) was 83% and the Survival (Avena sterilis [33]) was 67%. For the same compound, the Survival (Avena sterilis [34]) was 0%, the Survival (Avena sterilis [35]) was 40% and the Survival (Avena sterilis [36]) was 80%. The Survival (Avena sterilis [37]) was 97%, the Survival (Avena sterilis [38]) was 57% and the Survival (Avena sterilis [39]) was 27%. It also gave a Survival (Avena sterilis [40]) of 77%, a Survival (Avena sterilis [41]) of 73% and a Survival (Avena sterilis [42]) of 70%. It also gave a Survival (Avena sterilis [43]) of 20%, a Survival (Avena sterilis [44]) of 60% and a Survival (Avena sterilis [45]) of 93%. It also gave a Survival (Avena sterilis [46]) of 97%, a Survival (Avena sterilis [47]) of 10% and a Survival (Avena sterilis [48]) of 40%. It also gave a Survival (Avena sterilis [49]) of 73%, a Survival (Avena sterilis [50]) of 80% and a Survival (Avena sterilis [51]) of 50%. For the same compound, the Survival (Avena sterilis [52]) was 87%, the Survival (Avena sterilis [53]) was 97% and the Survival (Avena sterilis [54]) was 20%. It also gave a Survival (Avena sterilis [55]) of 47%, a Survival (Avena sterilis [56]) of 100% and a Survival (Avena sterilis [57]) of 87%. It also gave a Survival (Avena sterilis [58]) of 90%.
